# What was measured:
# EGI-1 = test: cells; format: functional, cell-based; details: Homo sapiens;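 also: cell viability readout used to gauge growth inhibition of EGI-1 cells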
# Description: SANGER: Inhibition of human EGI-1 cell growth in a cell viability assay.
# SNU-475 = test: cells; format: functional, cell-based; details: Homo sapiens
# Description: SANGER: Inhibition of human SNU-475 cell growth in a cell viability assay.
# SJRH30 = test: cells; format: functional, cell-based; details: Homo sapiens;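 also: growth inhibition of human SJRH30 cells, read out with a cell viability assay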
# Description: SANGER: Inhibition of human SJRH30 cell growth in a cell viability assay.
# A-427 = test: cells; format: functional, cell-based; details: Homo sapiens;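 also: growth inhibition of human A-427 cells, read out by a cell viability assay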
# Description: SANGER: Inhibition of human A427 cell growth in a cell viability assay.
# HCC38 = test: cells; format: functional, cell-based; details: Homo sapiens;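 also: cell viability assay on the human HCC38 cell line, with IC50 marking the concentration that inhibits cell growth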
# Description: SANGER: Inhibition of human HCC38 cell growth in a cell viability assay.
# RERF-LC-MS = test: cells; format: functional, cell-based; details: Homo sapiens;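 also: growth inhibition of human RERF-LC-MS cells, read out by a cell viability assay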
# Description: SANGER: Inhibition of human RERF-LC-MS cell growth in a cell viability assay.
# CAKI-1 = test: cells; format: functional, cell-based; details: Homo sapiens;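 also: growth inhibition of CAKI-1 cells, measured by a cell viability assay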
# Description: SANGER: Inhibition of human CAKI-1 cell growth in a cell viability assay.
# MDA-MB-453 = test: cells; format: functional, cell-based; details: Homo sapiens
# Description: SANGER: Inhibition of human MDA-MB-453 cell growth in a cell viability assay.
# MKN-7 = test: cells; format: functional, cell-based; details: Homo sapiens;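 also: growth inhibition of MKN-7 cells, read out with a cell viability assay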
# Description: SANGER: Inhibition of human MKN7 cell growth in a cell viability assay.
# DV-90 = test: cells; format: functional, cell-based; details: Homo sapiens;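 also: Read-out is a viability assay, with IC50 reflecting the drop in DV-90 cell growth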
# Description: SANGER: Inhibition of human DV-90 cell growth in a cell viability assay.
# BL-41 = test: cells; format: functional, cell-based; details: Homo sapiens;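 also: growth inhibition of human BL-41 cells, read out with a cell viability assay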
# Description: SANGER: Inhibition of human BL-41 cell growth in a cell viability assay.
# VMRC-RCZ = test: cells; format: functional, cell-based; details: Homo sapiens
# Description: SANGER: Inhibition of human VMRC-RCZ cell growth in a cell viability assay.
# NCI-H322M = test: cells; format: functional, cell-based, Homo sapiens; details: Homo sapiens, NCI-H322M;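 also: cell viability assay measuring inhibition of growth of human NCI-H322M cells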
# Description: SANGER: Inhibition of human NCI-H322M cell growth in a cell viability assay.
# NCI-H1563 = test: cells; format: functional, cell-based; details: Homo sapiens;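 also: growth inhibition of human NCI-H1563 cells, read out with a cell viability assay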
# Description: SANGER: Inhibition of human NCI-H1563 cell growth in a cell viability assay.
# CAL-148 = test: cells; format: functional, cell-based, Homo sapiens; details: Homo sapiens, CAL-148
# Description: SANGER: Inhibition of human CAL-148 cell growth in a cell viability assay.
# OAW-42 = test: cells; format: functional, cell-based; details: Homo sapiens;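 also: growth inhibition of OAW-42 cells, read out with a cell viability assay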
# Description: SANGER: Inhibition of human OAW-42 cell growth in a cell viability assay.
# MES-SA = test: cells; format: functional, cell-based; details: Homo sapiens;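 also: growth inhibition of human MES-SA cells, read out with a cell viability assay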
# Description: SANGER: Inhibition of human MES-SA cell growth in a cell viability assay.
# EW-7 = test: SANGER: Inhibition of human EW-7 cell growth in a cell viability assay.; format: functional, cell-based
# TT = test: cells; format: functional, cell-based; details: Homo sapiens
# Description: SANGER: Inhibition of human TT cell growth in a cell viability assay.
# YAPC = test: cells; format: functional, cell-based; details: Homo sapiens;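 also: growth inhibition of YAPC cells, measured with a cell viability assay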
# Description: SANGER: Inhibition of human YAPC cell growth in a cell viability assay.
# ME-180 = test: cells; format: functional, cell-based; details: Homo sapiens;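 also: cell viability assay measuring growth inhibition of ME-180 cells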
# Description: SANGER: Inhibition of human ME-180 cell growth in a cell viability assay.
# 647-V = test: cells; format: functional, cell-based; details: Homo sapiens;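 also: growth inhibition of 647-V cells, read out with a cell viability assay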
# Description: SANGER: Inhibition of human 647-V cell growth in a cell viability assay.
# MCF7 = test: cells; format: functional, cell-based; details: Homo sapiens;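 also: growth inhibition of human MCF7 cells, read out with a cell viability assay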
# Description: SANGER: Inhibition of human MCF7 cell growth in a cell viability assay.
# MEL-JUSO = test: cells; format: functional, cell-based; details: Homo sapiens;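 also: growth inhibition of human MEL-JUSO cells, read out with a cell viability assay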
# Description: SANGER: Inhibition of human MEL-JUSO cell growth in a cell viability assay.
# CCF-STTG1 = test: cells; format: functional, cell-based; details: Homo sapiens;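 also: growth inhibition of human CCF-STTG1 cells, determined with a cell viability read-out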
# Description: SANGER: Inhibition of human CCF-STTG1 cell growth in a cell viability assay.
# U-118-MG = test: cells; format: functional, cell-based; details: Homo sapiens
# Description: SANGER: Inhibition of human U-118-MG cell growth in a cell viability assay.
# MDA-MB-175-VII = test: cells; format: functional, cell-based; details: Homo sapiens
# HCC1395 = test: cells; format: functional, cell-based; details: Homo sapiens;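 also: growth inhibition of HCC1395 cells, read out by a cell viability assay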
# Description: SANGER: Inhibition of human HCC1395 cell growth in a cell viability assay.
# CAL-54 = test: cells; format: functional, cell-based; details: Homo sapiens;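 also: growth inhibition of CAL-54 cells, read out by a viability measurement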
# Description: SANGER: Inhibition of human CAL-54 cell growth in a cell viability assay.
# LCLC-97TM1 = test: cells; format: functional, cell-based; details: Homo sapiens;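 also: cell viability assay measuring growth inhibition of human LCLC-97TM1 cells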
# Description: SANGER: Inhibition of human LCLC-97TM1 cell growth in a cell viability assay.
# DK-MG = test: cells; format: functional, cell-based; details: Homo sapiens;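 also: growth inhibition of DK-MG cells, read out with a cell viability assay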
# Description: SANGER: Inhibition of human DK-MG cell growth in a cell viability assay.
# CMK = test: cells; format: functional, cell-based, Homo sapiens; details: Homo sapiens, CMK;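 also: growth inhibition of CMK cells, read out as cell viability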
# Description: SANGER: Inhibition of human CMK cell growth in a cell viability assay.
# CA46 = test: cells; format: functional, cell-based, Homo sapiens; details: Homo sapiens, CA46;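 also: growth inhibition of human CA46 cells, read out by a cell viability assay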
# Description: SANGER: Inhibition of human CA46 cell growth in a cell viability assay.
# BFTC-909 = test: cells; format: functional, cell-based; details: Homo sapiens
# Description: SANGER: Inhibition of human BFTC-909 cell growth in a cell viability assay.
# AN3-CA = test: cells; format: functional, cell-based; details: Homo sapiens;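 also: growth inhibition of human AN3-CA cells measured by a cell viability assay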
# Description: SANGER: Inhibition of human AN3-CA cell growth in a cell viability assay.
# SKG-IIIa = test: cells; format: functional, cell-based; details: Homo sapiens;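 also: cell growth inhibition, read out with a cell viability assay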
# Description: SANGER: Inhibition of human SKG-IIIa cell growth in a cell viability assay.
# BT-20 = test: cells; format: functional, cell-based; details: Homo sapiens;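 also: cell viability assay measuring suppression of growth in human BT-20 cells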
# Description: SANGER: Inhibition of human BT-20 cell growth in a cell viability assay.
# DMS-53 = test: cells; format: functional, cell-based; details: Homo sapiens;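 also: cell viability assay measuring growth inhibition of human DMS-53 cells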
# Description: SANGER: Inhibition of human DMS-53 cell growth in a cell viability assay.
# HuP-T3 = test: cells; format: functional, cell-based; details: Homo sapiens;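 also: HuP-T3 cell growth inhibition, read out with a cell viability assay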
# Description: SANGER: Inhibition of human HuP-T3 cell growth in a cell viability assay.
# IGROV-1 = test: cells; format: functional, cell-based; details: Homo sapiens;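 also: reduction of IGROV-1 cell growth, read out with a viability assay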
# Description: SANGER: Inhibition of human IGROV-1 cell growth in a cell viability assay.
# EFE-184 = test: cells; format: functional, cell-based; details: Homo sapiens
# Description: SANGER: Inhibition of human EFE-184 cell growth in a cell viability assay.
# NCI-H2141 = test: cells; format: functional, cell-based, Homo sapiens; details: Homo sapiens, NCI-H2141;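 also: growth inhibition of human NCI-H2141 cells, read out with a cell viability assay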
# Description: SANGER: Inhibition of human NCI-H2141 cell growth in a cell viability assay.
# CAL-33 = test: cells; format: functional, cell-based; details: Homo sapiens;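 also: growth inhibition of CAL-33 cells, read out with a cell viability assay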
# Description: SANGER: Inhibition of human CAL-33 cell growth in a cell viability assay.
# NCI-H1734 = test: cells; format: functional, cell-based; details: Homo sapiens;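 also: growth inhibition of human NCI-H1734 cells, read out with a cell viability assay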
# Description: SANGER: Inhibition of human NCI-H1734 cell growth in a cell viability assay.
# IPC-298 = test: SANGER: Inhibition of human IPC-298 cell growth in a cell viability assay.; format: functional, cell-based
# 8505C = test: cells; format: functional, cell-based; details: Homo sapiens
# Description: SANGER: Inhibition of human 8505C cell growth in a cell viability assay.
# P12-Ichikawa = test: cells; format: functional, cell-based; details: Homo sapiens
# NCI-H2081 = test: cells; format: functional, cell-based, Homo sapiens; details: Homo sapiens, NCI-H2081;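 also: growth inhibition of human NCI-H2081 cells, read out with a cell viability assay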
# Description: SANGER: Inhibition of human NCI-H2081 cell growth in a cell viability assay.
compound,measurement,setting,value
OC[C@H](Cc1ccccc1)Nc1nc(Oc2ccc3c(c2)CCC3)nc2c1ncn2Cc1ccc(-c2ccccc2)cc1,IC50,EGI-1,> 10.2 µM
same,IC50,SNU-475,> 10.2 µM
same,IC50,SJRH30,> 10.2 µM
same,IC50,A-427,> 10.2 µM
same,IC50,HCC38,> 10.2 µM
same,IC50,RERF-LC-MS,> 10.2 µM
same,IC50,CAKI-1,> 10.2 µM
same,IC50,MDA-MB-453,> 10.2 µM
same,IC50,MKN-7,> 10.2 µM
same,IC50,DV-90,> 10.2 µM
same,IC50,BL-41,3.69 µM
same,IC50,VMRC-RCZ,> 10.2 µM
same,IC50,NCI-H322M,> 10.2 µM
same,IC50,NCI-H1563,> 10.2 µM
same,IC50,CAL-148,> 10.2 µM
same,IC50,OAW-42,> 10.2 µM
same,IC50,MES-SA,> 10.2 µM
same,IC50,EW-7,> 10.2 µM
same,IC50,TT,> 10.2 µM
same,IC50,YAPC,> 10.2 µM
same,IC50,ME-180,> 10.2 µM
same,IC50,647-V,> 10.2 µM
same,IC50,MCF7,2.26 µM
same,IC50,MEL-JUSO,7.9 µM
same,IC50,CCF-STTG1,> 10.2 µM
same,IC50,U-118-MG,> 10.2 µM
same,IC50,MDA-MB-175-VII,> 10.2 µM
same,IC50,HCC1395,> 10.2 µM
same,IC50,CAL-54,> 10.2 µM
same,IC50,LCLC-97TM1,6.43 µM
same,IC50,DK-MG,> 10.2 µM
same,IC50,CMK,> 10.2 µM
same,IC50,CA46,> 10.2 µM
same,IC50,BFTC-909,> 10.2 µM
same,IC50,AN3-CA,> 10.2 µM
same,IC50,SKG-IIIa,> 10.2 µM
same,IC50,BT-20,> 10.2 µM
same,IC50,DMS-53,> 10.2 µM
same,IC50,HuP-T3,> 10.2 µM
same,IC50,IGROV-1,8.45 µM
same,IC50,EFE-184,> 10.2 µM
same,IC50,NCI-H2141,> 10.2 µM
same,IC50,CAL-33,> 10.2 µM
same,IC50,NCI-H1734,> 10.2 µM
same,IC50,IPC-298,> 10.2 µM
same,IC50,8505C,4.57 µM
same,IC50,P12-Ichikawa,7.93 µM
same,IC50,NCI-H2081,> 10.2 µM
O=S(=O)(O)c1ccc2cc(/N=N/c3cc(S(=O)(=O)O)c4cccnc4c3O)ccc2c1,IC50,EGI-1,> 16 µM
same,IC50,SNU-475,> 16 µM
same,IC50,SJRH30,> 16 µM
same,IC50,A-427,> 16 µM
same,IC50,HCC38,> 16 µM
same,IC50,RERF-LC-MS,> 16 µM
same,IC50,CAKI-1,> 16 µM
same,IC50,MDA-MB-453,> 16 µM
same,IC50,MKN-7,> 16 µM
same,IC50,DV-90,> 16 µM
same,IC50,BL-41,> 16 µM
same,IC50,VMRC-RCZ,> 16 µM
same,IC50,NCI-H322M,> 16 µM
same,IC50,NCI-H1563,> 16 µM
same,IC50,CAL-148,> 16 µM
same,IC50,OAW-42,> 16 µM
same,IC50,MES-SA,> 16 µM
same,IC50,EW-7,> 16 µM
same,IC50,TT,> 16 µM
same,IC50,YAPC,> 16 µM
same,IC50,ME-180,> 16 µM
same,IC50,647-V,> 16 µM
same,IC50,MCF7,> 16 µM
same,IC50,MEL-JUSO,> 16 µM
same,IC50,CCF-STTG1,> 16 µM
same,IC50,U-118-MG,> 16 µM
same,IC50,MDA-MB-175-VII,> 16 µM
same,IC50,HCC1395,> 16 µM
same,IC50,CAL-54,> 16 µM
same,IC50,LCLC-97TM1,> 16 µM
same,IC50,DK-MG,> 16 µM
same,IC50,CMK,> 16 µM
same,IC50,CA46,> 16 µM
same,IC50,BFTC-909,> 16 µM
same,IC50,AN3-CA,14.1 µM
same,IC50,SKG-IIIa,> 16 µM
same,IC50,BT-20,> 16 µM
same,IC50,DMS-53,> 16 µM
same,IC50,HuP-T3,> 16 µM
same,IC50,IGROV-1,> 16 µM
same,IC50,EFE-184,> 16 µM
same,IC50,NCI-H2141,> 16 µM
same,IC50,CAL-33,> 16 µM
same,IC50,NCI-H1734,> 16 µM
same,IC50,IPC-298,> 16 µM
same,IC50,8505C,> 16 µM
same,IC50,P12-Ichikawa,> 16 µM
same,IC50,NCI-H2081,> 16 µM

# — ChEMBL document CHEMBL1201861, “Genomics of Drug Sensitity in Cancer screening data, Wellcome Trust Sanger Institute”
